Measurements: US12492337B2, “Fluorescent probe, preparation method therefor and use thereof” (FLUORESCENCE DIAGNOSIS (SHANGHAI) BIOTECH COMPANY, priority 2017, dated 2025)

Key:
HaloTag protein tag = experiment: Probe mixed with HaloTag protein tag, fluorescence spectrophotometer (Example 86); format: biochemical; conditions: 5 μM probe, 10 μM protein tag, 37° C., 1 hour; for Fluorescence enhancement: fluorescence activation multiple after binding protein tag; for Emission/nm: fluorescence emission wavelength
Description: (§1) A probe was mixed with a corresponding HaloTag protein tag to obtain a mixed sample. The final concentration of the probe in the mixed sample was 5 μM and the final concentration of the protein tag was 10 μM. The mixed sample was incubated at 37° C. for 1 hour, and the sample was detected using a fluorescence spectrophotometer.

[1] = Quantum yield of free probe not reacted with protein tag; format: physicochemical
Description: as §1

[2] = Viscosity responsiveness: fluorescence intensity in glycerol versus methanol; format: physicochemical; conditions: fluorescence intensity in glycerol to that in methanol
Description: The above-mentioned viscosity-responsive fluorescent dye means that the fluorescence intensity of the dye responds to the viscosity of the solution. As the viscosity of the solution increases, the fluorescence intensity increases. Optionally, the viscosity-responsive fluorescent dye is an organic dye molecule which, under the same concentration and excitation wavelength, at 25° C. has a ratio • of the maximum fluorescence emission intensity of the dye in glycerol to the fluorescence intensity in methanol of greater than 2, optionally greater than 5, optionally greater than 10. The concentration of the viscosity-responsive dye ranges from 1×10^−7 M to 1×10^−5 M.

The quantum yield after binding to Halo-tag (HaloTag protein tag) | Emission/nm (HaloTag protein tag) [nm] | The quantum yield of the free probe [1] | ratio [2] | SMILES | Fluorescence enhancement (HaloTag protein tag)
0.43 | 620 | <0.001 | 1134 | CN(CCOC(=O)NCCOCCOCCCCCCCl)c1ccc2nc(/C=C(\C#N)c3nc4ccccc4o3)ccc2c1 [Probe 27] | 665
0.41 | 566 | <0.001 | 1132 | CN(CCOC(=O)NCCOCCOCCCCCCCl)c1ccc(C#C/C=C(\C#N)C(=O)OC(C)(C)C)cc1 [Probe 28] | 551
0.53 | 640 | <0.001 | 998 | CN(CCOC(=O)NCCOCCOCCCCCCCl)c1cc2sc3cc(/C=C(\C#N)C(=O)OC(C)(C)C)sc3c2s1 [Probe 29] | 621
0.60 | 620 | <0.001 | 1125 | CN(CCOC(=O)NCCOCCOCCCCCCCl)c1cc2sc3cc(/C=C(\C#N)c4nc5ccccc5o4)sc3c2s1 [Probe 30] | 535
0.41 | 660 | <0.001 | 1135 | CN(CCOC(=O)NCCOCCOCCCCCCCl)c1cc2sc3cc(/C=C(\C#N)c4nc5ccccc5s4)sc3c2s1 [Probe 31] | 875
0.46 | 609 | <0.001 | 997 | CN(CCOC(=O)NCCOCCOCCCCCCCl)c1ccc2c(c1)sc1cc(/C=C(\C#N)C(=O)OC(C)(C)C)sc12 [Probe 32] | 638
0.47 | 620 | <0.001 | 1781 | CN(CCOC(=O)NCCOCCOCCCCCCCl)c1ccc(-c2ccc(/C=C(\C#N)C(=O)OC(C)(C)C)s2)cc1 [Probe 33] | 957
0.32 | 615 | <0.001 | 1774 | COCCNC(=O)/C(C#N)=C/c1ccc(-c2ccc(N(C)CCOC(=O)NCCOCCOCCCCCCCl)cc2)o1 [Probe 34] | 857
0.45 | 618 | 0.0012 | 972 | CN(CCOC(=O)NCCOCCOCCCCCCCl)c1ccc(-c2ccc(/C=C(\C#N)C(=O)O)s2)cc1 [Probe 35] | 433
0.58 | 630 | 0.001 | 1258 | CN(CCOC(=O)NCCOCCOCCCCCCCl)c1cc2cc3sc(/C=C(\C#N)C(=O)OC(C)(C)C)cc3cc2s1 [Probe 36] | 488
0.47 | 657 | 0.001 | 759 | CN(CCOC(=O)NCCOCCOCCCCCCCl)c1ccc(-c2ccc(/C=C(\C#N)C(=O)OC(C)(C)C)s2)s1 [Probe 40] | 421
0.44 | 700 | 0.0015 | 101 | COCCNC(=O)/C(C#N)=C/c1ccc(-c2ccc(N(C)CCOC(=O)NCCOCCOCCCCCCCl)s2)s1 [Probe 41] | 418
0.39 | 702 | 0.0013 | 178 | CN(CCOC(=O)NCCOCCOCCCCCCCl)c1ccc(-c2ccc(/C=C(\C#N)c3nc4ccccc4o3)s2)s1 [Probe 42] | 375
0.63 | 521 | <0.001 | 1459 | CC(C)(C)OC(=O)/C(C#N)=C/c1ccc2c(c1)SCCN2CCOC(=O)NCCOCCOCCCCCCCl [Probe 44] | 1586
0.54 | 545 | <0.001 | 752 | N#C/C(=C\c1ccc2c(c1)SCCN2CCOC(=O)NCCOCCOCCCCCCCl)c1nc2ccccc2o1 [Probe 45] | 958
0.58 | 520 | <0.001 | 682 | CC1=CC(C)(C)N(CCOC(=O)NCCOCCOCCCCCCCl)c2ccc(/C=C(\C#N)C(=O)OC(C)(C)C)cc21 [Probe 46] | 563
0.45 | 523 | <0.001 | 235 | CC1=CC(C)(C)N(CCOC(=O)NCCOCCOCCCCCCCl)c2ccc(/C=C(\C#N)C(=O)O)cc21 [Probe 47] | 358
0.57 | 645 | <0.001 | 480 | CN(CCOC(=O)NCCOCCOCCCCCCCl)c1cc2c(s1)-c1sc(/C=C(\C#N)C(=O)OC(C)(C)C)cc1C2(C)C [Probe 48] | 428
0.54 | 680 | <0.001 | 334 | CN(CCOC(=O)NCCOCCOCCCCCCCl)c1cc2c(s1)-c1sc(/C=C(\C#N)c3nc4ccccc4o3)cc1C2(C)C [Probe 49] | 541
0.53 | 637 | <0.001 | 358 | CN(CCOC(=O)NCCOCCOCCCCCCCl)c1cc2c(s1)-c1sc(/C=C(\C#N)C(=O)O)cc1C2(C)C [Probe 50] | 416
0.48 | 625 | <0.001 | 359 | CN(CCOC(=O)NCCOCCOCCCCCCCl)c1ccc2c(c1)C(C)(C)c1cc(/C=C(/C#N)C(=O)OC(C)(C)C)ccc1-2 [Probe 51] | 392
0.47 | 670 | <0.001 | 270 | COCCNC(=S)/C(C#N)=C/c1cc2c(s1)-c1sc(N(C)CCOC(=O)NCCOCCOCCCCCCCl)cc1C2(C)C [Probe 52] | 435
0.39 | 660 | <0.001 | 211 | CN1C(=O)/C(=C\c2cc3c(s2)-c2sc(N(C)CCOC(=O)NCCOCCOCCCCCCCl)cc2C3(C)C)SC1=S [Probe 55] | 382
0.58 | 480 | <0.001 | 419 | CN(CCO)c1ccc(/C=C(\C#N)C(=O)NCCOCCOCCCCCCCl)cc1 [Probe 58] | 519
0.60 | 585 | <0.001 | 632 | CN(C)c1ccc2cc(/C=C(\C#N)C(=O)OCCOCCOCCCCCCCl)sc2c1 [Probe 64] | 519
0.66 | 570 | <0.001 | 391 | CN(CCO)c1ccc2cc(/C=C(\C#N)C(=O)NCCOCCOCCCCCCCl)sc2c1 [Probe 65] | 798

SMILES | The quantum yield after binding to Halo-tag (HaloTag protein tag) | Emission/nm (HaloTag protein tag) [nm] | The quantum yield of the free probe [1] | ratio [2] | Fluorescence enhancement (HaloTag protein tag)
CN(CCOC(=O)NCCOCCOCCCCCCCl)c1cc2c(s1)-c1sc(C=C(C#N)C#N)cc1[Si]2(C)C [Probe 37] | 0.56 | 655 | 0.0012 | 1135 | 469
CN(CCOC(=O)NCCOCCOCCCCCCCl)c1cc2c(s1)-c1sc(/C=C(\C#N)C(=O)OC(C)(C)C)cc1[Si]2(C)C [Probe 38] | 0.56 | 650 | 0.0011 | 1011 | 503
CN(CCOC(=O)NCCOCCOCCCCCCCl)c1cc2c(s1)-c1sc(/C=C(\C#N)c3nc4ccccc4s3)cc1[Si]2(C)C [Probe 39] | 0.38 | 700 | 0.0016 | 892 | 335
COCCNC(=S)/C(C#N)=C/c1cc2c(s1)-c1sc(N(C)CCOC(=O)NCCOCCOCCCCCCCl)cc1[Si]2(C)C [Probe 54] | 0.41 | 710 | <0.001 | 391 | 498
CN1C(=O)/C(=C\c2cc3c(s2)-c2sc(N(C)CCOC(=O)NCCOCCOCCCCCCCl)cc2[Si]3(C)C)SC1=S [Probe 56] | 0.47 | 725 | <0.001 | 436 | 989
